Assay results published in US10071983B2, “Activatable fluorogenic compounds and uses thereof as near infrared probes” (Ramot at Tel-Aviv University Ltd., priority 2011, dated 2018).
Several values for one entry are separate records, joined by “and”; a condition that tells them apart may be missing. Identical values can stand only once.

What was measured:
[1] = Extinction coefficient calculation (absorbance vs concentration); assay type: physicochemical
Text: FIG. 7 presents linear plots of QCy7 as measured at 1 cm cuvette, at the indicated concentrations in PBS 7.4, at the maximum wavelength of QCy7 (560 nm). εQCy7=26848[M^−1cm^−1]
FIG. 10 presents linear plots of Sulfo-QCy7 as measured at 1 cm cuvette, at the indicated concentrations in PBS 7.4, at the maximum wavelength of Sulfo-QCy7 (590 nm). εSulfo-QCy7=52235[M^−1cm^−1]

[2] = NIR fluorescence emission spectrum of dye compounds; assay type: physicochemical; conditions: PBS 7.4 [50 μM], excitation 570 nm, cutting filter >690 nm
HeLa cells [3] = test: Cell permeability, confocal imaging of HeLa cells; assay type: cell-based
Experimental: HeLa cells were incubated overnight with Compound 9 in PBS 7.4, and the cells was thereafter imaged by confocal microscope.
A colocalization assay of Compound 25 was conducted with the lysosome marker lysosensor. Sample was excited with a 561 nm laser line and fluorescence acquired from 570 nm to 800 nm.

[4] = NIR fluorescence emission spectrum of dye compounds; assay type: physicochemical; conditions: for fluorescence emission peak in the NIR region: PBS 7.4; for λmax: Table 1, λmax (fluorescence emission)
Text: (§1) Compound 1 (which generates the dye compound QCy7 deprotonation) was obtained as an orange crystalline powder. FIGS. 4A and 4B present the UV-Vis spectrum of Compound 1 (FIG. 4A), compared to that of the acetate Compound 3 (FIG. 4B). […] The obtained large stokes shift between the excitation and the emission wavelengths of about 150 nm is a desirable feature for fluorescence probes, which assists in increasing the signal-to-noise ratio.
(§2) FIG. 5 presents the data obtained for fluorescence intensity vs. wavelength of standard sample (Cresyl violet; FIG. 5A), and test sample (QCy7; FIG. 5B), at the indicated concentrations. The measurements were performed in a 1 cm cuvette using Fluoromax-3 fluorometer; at an excitation wavelength of 560 nm. Cresyl violet was dissolved in methanol and Compound 1 in PBS 7.4 (just generating QCy7).
(§3) FIG. 8 presents the data obtained for fluorescence intensity vs. wavelength of standard sample (QCy7; FIG. 8A), and test sample (Sulfo-QCy7, generated from Compound 9; FIG. 8B), at the indicated concentrations. The measurements were performed at a 96-wells plate reader using Fluoromax-3 fluorometer; at an excitation wavelength of 560 nm. Both samples were dissolved in PBS 7.4.

[5] = Fluorescence quantum yield calculation against a reference dye; assay type: physicochemical; conditions: PBS 7.4
Experimental: Cresyl-violet-perchlorate (as presented hereinbelow) was chosen as a reference compound for the determination of QCy7 quantum yield.
as §2
Conversion to the absolute quantum yield is achieved through the following equation: ΦX=ΦST(GradX/GradST)(η^2X/η^2ST) where the subscripts ST and X denote standard and test respectively, Φ is the fluorescence quantum yield, Grad the gradient from the plot of integrated fluorescence intensity vs. absorbance (see, FIG. 6), and η the refractive index of the solvents. ΦCresyl-violet=0.55 [Stefan et al. ([…]) J. Phys. Chem. 86, 1738-1742].
QCy7 was chosen as a reference compound for the determination of Sulfo-QCy7 quantum yield.
as §3
The absolute quantum yield was calculated as described hereinabove and found to be: […]

[6] = pKa measurement by UV-Vis absorbance as a function of pH; assay type: physicochemical; conditions: buffers at the indicated pH; 50 μM in buffers, phenol form
Experimental: The pKa values of exemplary compounds according to some embodiments of the present invention, Compounds 14, 18 and 25, was measured by monitoring their UV-Vis absorbance as a function of the environment pH. The tested compounds, at a concentration of 50 μM were dissolved in the respective buffers at the indicated pH and their absorbance was measured.

HeLa cells [7] = test: Two-photon excitation with NIR laser in HeLa cells; assay type: cell-based; conditions: incubated with HeLa cells and PBS 7.4
Experimental: Fluorescent dyes, which absorb at wavelengths of 350-550 nm, can be excited in NIR region with a two-photon laser.
Compound 25 was incubated with HeLa cells and PBS 7.4.

[8] = UV-Vis absorption spectrum of dye compounds; assay type: physicochemical
Text: as §1
Compound 14 is composed from a phenol latent donor and two different acceptors; a picolinium moiety and an indolium moiety (see, Scheme 3). Deprotonation of the phenolic dye leads to formation of new donor-acceptor pair fluorochrome.
Compound 18 is composed of a phenol latent donor and two identical acceptors based on a picolinium moiety (see, Scheme 4). Deprotonation of the phenolic form leads to formation of new donor-acceptor pair fluorochrome.
Compound 25 is composed of a phenol latent donor and three acceptors; two picolinium moieties and one indolium moiety (see, Scheme 5). Deprotonation of the phenolic compound leads to formation of three resonance donor-two-acceptor structures of new fluorochrome.
The chemical 2D structures and spectroscopic data obtained for exemplary dye molecules according to embodiments of the present invention are presented in Table 1.

[9] = Aqueous stability in PBS 7.4 at 37° C., NIR emission over 72 hours; assay type: physicochemical; conditions: PBS 7.4 [25 μM]
Experimental: The aqueous stability of the cyanine-like dye compound presented herein was tested and compared to that of the cyanine molecule Cy7.
All tested compounds were incubated in PBS 7.4 [25 μM], at 37° C., and their NIR fluorescent emission was monitored over 72 hours. FIG. 15 presents the normalized intensity of NIR fluorescent emission of dyes generated from Compound 9 (green circles; Sulfo-QCy7), Compound 14 (blue diamonds), Compound 18 (red squares), Compound 25 (orange triangles) and Compound 1 (blank navy squares; QCy7) as a function of incubation time.

[10] = in methanol; Stefan et al. 1992; cited from earlier work

extinction coefficient ε ([1]; PBS 7.4, 1 cm cuvette, at maximum wavelength (QCy7 560 nm, Sulfo-QCy7 590 nm)) | extinction coefficient ([1]; rounded value) | appearance under NIR imaging camera [2] | fluorescence emission peak in the NIR region [4] | λmax [4] | quantum yield [5] | pKa [6] | two-photon excitation spectrum wavelengths (HeLa cells [7]) | UV-Vis absorption peak maximum ([8]; PBS 7.4) | λmax ([8]; Table 1, first λmax column (absorption peaks)) | SMILES | fluorescence inside vs outside the cells (HeLa cells [3]; HeLa cells incubated overnight, PBS 7.4) | cellular localization (colocalization with lysosensor) (HeLa cells [3]; HeLa cells, excitation 561 nm, 570-800 nm) | chemical stability in cell-medium (HeLa cells [3]; overnight incubation with cells) | NIR fluorescence under acidic condition of the lysosome (HeLa cells [3]; pH of about 5) | aqueous stability compared with Cy7 [9] | fluorescence quantum yield of reference [10]
52235 M⁻¹ cm⁻¹ | 52,000 mol^−1 cm^−1 | exhibits well-observed NIR fluorescence | 720 nm | 710 nm | 16% | – | – | – | – | CC1(C)C(/C=C/c2ccc(O)c(/C=C/C3=[N+](CCCS(=O)(=O)[O-])c4ccccc4C3(C)C)c2)=[N+](CCCS(=O)(=O)[O-])c2ccccc21 [Compound 9] | higher fluorescence inside the cells | – | – | – | – | –
– | – | – | 680 nm | 650 nm | 16% | 5.4 | 800-1000 nm | 330 nm and 550 nm | 550 nm | C[n+]1ccc(/C=C/c2cc(/C=C/C3=[N+](CCCS(=O)(=O)O)c4ccccc4C3(C)C)cc(/C=C/c3cc[n+](C)cc3)c2O)cc1 [Compound 25] | – | accumulation of the dye in the lisosomal vesicles indicates cell-penetration through endocytosis mechanism | chemical stability after overnight in cell-medium | emitted NIR fluorescence even under the acidic condition of the lysosome | increase aqueous stability than that of Cy7 | –
– | – | – | – | – | – | – | – | – | – | N=c1cc2oc3cc(N)ccc3nc-2c2ccccc12.[O-][Cl+3]([O-])([O-])O [Cresyl-violet, Cresyl-violet-perchlorate] | – | – | – | – | – | 0.55
